The target in one assay is T1, TrkB (Homo sapiens, UniProt Q16620).
T1 construct: expressed in transfected cells; host or cells: U2OS
The assay can be described thus: Enzyme Fragment Complementation cell-based assay, TrkB. As to conditions: U2OS-cells over-expressing TrkB; ligand 10 ng/mL; 3 hours incubation. The source says: (§1) A high throughput cell-based screen has been used to identify positive modulators of TrkA, TrkB and TrkC. The screen involves the use of cell-based assay overexpressing TrkA, TrkB or TrkC. The purpose of the assay is to identify compounds that modulate neurotrophin signalling (Forsell et al 2012). The assay can be used in inhibitor mode using a high concentration of ligand, in modulator mode using an intermediate concentration and in agonist mode using a low concentration of ligand.
(§2) The assay uses Enzyme Fragment Complementation (EFC) technique, which is a proximity-based assay. Briefly, cells used in this assay over-express two fusion proteins, i.e. the receptor, which can be either one of TrkA, TrkB, TrkC, IGF1R or FGFR1, fused to a small peptide of beta-galactosidase and an adaptor protein, i.e. SHC1 (or any other Trk-adaptor protein) fused to the major part of beta-galactosidase. […] The proximity between the small activating peptide on the receptor and the major part of beta-galactosidase on the adaptor protein leads to an active beta-galactosidase enzyme. The activation of the receptor is quantified by measuring the amount of active beta-galactosidase by its conversion of a non-luminescent substrate into a luminescent product.
(§3) U2OS-cells, over-expressing TrkA or TrkB or TrkC, are plated in 96- or 384-well plates and incubated overnight. Alternatively, cryopreserved HEK293-cells expressing IGFR1 or cryopreserved U2OS-cells expressing FGFR1 were plated in 96- or 384-well plates. On the following day, test compound was pre-mixed with ligand (NGF, BDNF, NT-3, IGF-1 or basic fibroblast growth factor (bFGF(FGF-2))) and the ligand-compound mixture is then added to the cells to yield a final ligand concentration of 10 ng/mL. After 3 hours of incubation at room temperature, the incubation is stopped by the addition of a beta-galactosidase substrate mixture containing detergents. The substrate mixture is incubated for 60 minutes at ambient temperature. The luminescence is thereafter read by the use of a plate reader.

The next assay concerns the target T2, TrkA (Homo sapiens, UniProt P04629).
T2 construct: expressed in transfected cells; host or cells: U2OS
The assay can be described thus: Enzyme Fragment Complementation cell-based assay, TrkA. As to conditions: U2OS-cells over-expressing TrkA; ligand 10 ng/mL; 3 hours incubation.
Description: as §1, §2, §3

T1 sequence (Q16620 32-822): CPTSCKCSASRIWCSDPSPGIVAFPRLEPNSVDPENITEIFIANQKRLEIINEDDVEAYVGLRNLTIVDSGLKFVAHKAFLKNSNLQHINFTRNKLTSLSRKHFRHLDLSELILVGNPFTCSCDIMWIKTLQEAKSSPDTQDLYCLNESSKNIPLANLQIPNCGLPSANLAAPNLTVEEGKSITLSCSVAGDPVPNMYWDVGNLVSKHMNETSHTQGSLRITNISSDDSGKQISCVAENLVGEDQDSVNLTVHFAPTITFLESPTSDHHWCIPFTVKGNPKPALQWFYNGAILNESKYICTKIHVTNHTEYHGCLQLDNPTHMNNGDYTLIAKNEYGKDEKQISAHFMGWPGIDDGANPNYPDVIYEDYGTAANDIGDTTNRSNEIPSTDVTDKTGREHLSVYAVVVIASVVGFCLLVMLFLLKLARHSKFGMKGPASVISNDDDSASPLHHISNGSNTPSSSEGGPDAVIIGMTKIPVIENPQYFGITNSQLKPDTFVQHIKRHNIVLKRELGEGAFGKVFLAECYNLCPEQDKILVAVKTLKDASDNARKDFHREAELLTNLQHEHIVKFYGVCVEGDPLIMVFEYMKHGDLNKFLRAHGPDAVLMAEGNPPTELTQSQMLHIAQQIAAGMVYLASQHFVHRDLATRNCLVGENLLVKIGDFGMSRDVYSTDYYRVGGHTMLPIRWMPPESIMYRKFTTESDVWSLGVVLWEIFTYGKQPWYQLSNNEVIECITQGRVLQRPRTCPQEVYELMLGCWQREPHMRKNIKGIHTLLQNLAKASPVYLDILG
T2 sequence (P04629 33-796): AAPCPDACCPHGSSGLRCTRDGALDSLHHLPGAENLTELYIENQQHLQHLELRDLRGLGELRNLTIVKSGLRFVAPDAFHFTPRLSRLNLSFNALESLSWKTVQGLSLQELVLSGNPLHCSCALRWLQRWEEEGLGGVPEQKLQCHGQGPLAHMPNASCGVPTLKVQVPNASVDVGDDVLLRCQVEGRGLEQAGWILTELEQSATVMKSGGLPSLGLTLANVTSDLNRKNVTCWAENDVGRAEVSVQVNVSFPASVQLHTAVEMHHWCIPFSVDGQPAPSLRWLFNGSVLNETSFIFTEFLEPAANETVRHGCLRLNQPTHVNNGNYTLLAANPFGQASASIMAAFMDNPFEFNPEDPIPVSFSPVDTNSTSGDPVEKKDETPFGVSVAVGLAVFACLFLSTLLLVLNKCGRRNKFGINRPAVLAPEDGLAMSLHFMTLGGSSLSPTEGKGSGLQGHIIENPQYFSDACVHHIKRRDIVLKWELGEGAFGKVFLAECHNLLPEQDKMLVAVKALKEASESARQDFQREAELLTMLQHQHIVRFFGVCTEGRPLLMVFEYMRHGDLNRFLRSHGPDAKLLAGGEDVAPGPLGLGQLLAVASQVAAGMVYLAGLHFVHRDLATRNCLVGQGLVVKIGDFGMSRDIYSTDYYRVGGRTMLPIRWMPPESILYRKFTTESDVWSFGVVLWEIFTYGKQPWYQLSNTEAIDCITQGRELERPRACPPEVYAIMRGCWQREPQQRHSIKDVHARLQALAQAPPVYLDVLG

In the case of `COc1ccc(-n2c(=O)[nH]c(=O)n(-c3ccc(Oc4ccccc4)cc3)c2=O)cc1` [Example 2, 1-(4-methoxyphenyl)-3-(4-phenoxyphenyl)-1,3,5-triazinane-2,4,6-trione], the EC50 at TrkB was 2400 nM; on TrkA it was 1400 nM.

Regarding `N#Cc1cccc(-n2c(=O)[nH]c(=O)n(-c3ccc(Oc4ccccc4)cc3)c2=O)c1` [Example 3, 3-[2,4,6-trioxo-3-(4-phenoxyphenyl)-1,3,5-triazinan-1-yl]benzonitrile], on TrkA, the EC50 came out at 6700 nM.

In the case of `COc1cc(Oc2ccccc2)c(C)cc1-n1c(=O)[nH]c(=O)n(-c2ccccc2)c1=O` [Example 13, 1-(2-methoxy-5-methyl-4-phenoxyphenyl)-3-phenyl-1,3,5-triazinane-2,4,6-trione], the EC50 on TrkB amounted to 450 nM; at TrkA it was 620 nM.

On TrkA, `COc1cc(-n2c(=O)[nH]c(=O)n(-c3ccccc3)c2=O)cc(C)c1Oc1ccccc1` [Example 14, 1-(3-methoxy-5-methyl-4-phenoxyphenyl)-3-phenyl-1,3,5-triazinane-2,4,6-trione] yielded an EC50 of 490 nM.

Turning to `Cc1cc(-n2c(=O)[nH]c(=O)n(-c3ccccn3)c2=O)ccc1Oc1ccccc1` [Example 18, 1-(3-methyl-4-phenoxyphenyl)-3-(pyridin-2-yl)-1,3,5-triazinane-2,4,6-trione], the EC50 on TrkB was found to be 140 nM; on TrkA, 870 nM.

Turning to `O=c1[nH]c(=O)n(-c2ccc3c(cnn3-c3ccccc3)c2)c(=O)n1-c1ccccc1` [Example 19, 1-phenyl-3-(1-phenyl-1H-indazol-5-yl)-1,3,5-triazinane-2,4,6-trione], the concentration for a half-maximal effect (EC50) at TrkB is 880 nM; at TrkA it was 820 nM.

On to `Cn1c(=O)[nH]c(=O)n(-c2ccc3c(cnn3-c3ccccc3)c2)c1=O` [Example 31, 1-methyl-3-(1-phenyl-1H-indazol-5-yl)-1,3,5-triazinane-2,4,6-trione], for which the concentration for a half-maximal effect (EC50) at TrkB came out at 69000 nM; on TrkA, 46000 nM.

Consider `COc1cc(-n2c(=O)[nH]c(=O)n(C)c2=O)cc(C)c1Oc1ccccc1` [Example 32, 1-(3-methoxy-5-methyl-4-phenoxyphenyl)-3-methyl-1,3,5-triazinane-2,4,6-trione], for which, on TrkA, the response was half-maximal at 800 nM (EC50).

Regarding `COc1c(-n2c(=O)[nH]c(=O)n(-c3ccccc3)c2=O)ccc(Oc2ccccc2)c1C` [Example 33, 1-(2-methoxy-3-methyl-4-phenoxyphenyl)-3-phenyl-1,3,5-triazinane-2,4,6-trione], the EC50 at TrkB is 100 nM; at TrkA it was 230 nM.

As for `Cc1cc(-n2c(=O)[nH]c(=O)n(-c3ccccc3)c2=O)ccc1Cc1ccccc1` [Example 42, 1-(4-benzyl-3-methylphenyl)-3-phenyl-1,3,5-triazinane-2,4,6-trione], the EC50 at TrkB was 280 nM; on TrkA, 190 nM.

For `Cc1cc(-n2c(=O)[nH]c(=O)n(-c3cccc(Cl)c3)c2=O)ccc1Oc1ccccc1` [Example 43, 1-(3-chlorophenyl)-3-(3-methyl-4-phenoxyphenyl)-1,3,5-triazinane-2,4,6-trione], the EC50 is 120 nM at TrkB and 160 nM at TrkA.

With `Cc1cc(-n2c(=O)[nH]c(=O)n(-c3cccc(OC(F)(F)F)c3)c2=O)ccc1Oc1ccccc1` [Example 44, 1-(3-methyl-4-phenoxyphenyl)-3-[3-(trifluoromethoxy)phenyl]-1,3,5-triazinane-2,4,6-trione], the EC50 at TrkB is 260 nM; on TrkA it was 330 nM.

For the compound `Cc1cc(-n2c(=O)[nH]c(=O)n(-c3ccc(F)cc3)c2=O)ccc1Oc1ccccc1` [Example 45, 1-(4-fluorophenyl)-3-(3-methyl-4-phenoxyphenyl)-1,3,5-triazinane-2,4,6-trione], the concentration for a half-maximal effect (EC50) on TrkB was determined as 360 nM; at TrkA, 470 nM.

As to `Cc1cc(-n2c(=O)[nH]c(=O)n(-c3ccc4occc4c3)c2=O)ccc1Oc1ccccc1` [Example 46, 1-(1-benzofuran-5-yl)-3-(3-methyl-4-phenoxyphenyl)-1,3,5-triazinane-2,4,6-trione], the values for the concentration giving a half-maximal response (EC50) at TrkB and on TrkA were 240 nM and 480 nM, respectively.

As for `Cc1cc(-n2c(=O)[nH]c(=O)n(-c3ccc4[nH]ccc4c3)c2=O)ccc1Oc1ccccc1` [Example 47, 1-(1H-indol-5-yl)-3-(3-methyl-4-phenoxyphenyl)-1,3,5-triazinane-2,4,6-trione], the concentration for a half-maximal effect (EC50) on TrkB turned out to be 270 nM; on TrkA, 480 nM.

For `Cc1cc(-n2c(=O)[nH]c(=O)n(-c3ccc4c(c3)OCO4)c2=O)ccc1Oc1ccccc1` [Example 48, 1-(2H-1,3-benzodioxol-5-yl)-3-(3-methyl-4-phenoxyphenyl)-1,3,5-triazinane-2,4,6-trione], the half-maximal effective concentration (EC50) on TrkB stood at 260 nM; on TrkA it was 500 nM.

For the compound `COc1cccc(-n2c(=O)[nH]c(=O)n(-c3ccc(Oc4ccccc4)c(C)c3)c2=O)c1` [Example 50, 1-(3-methoxyphenyl)-3-(3-methyl-4-phenoxyphenyl)-1,3,5-triazinane-2,4,6-trione], the concentration for a half-maximal effect (EC50) amounted to 190 nM on TrkB and 310 nM at TrkA.

For the compound `COc1ccccc1-n1c(=O)[nH]c(=O)n(-c2ccc(Oc3ccccc3)c(C)c2)c1=O` [Example 51, 1-(2-methoxyphenyl)-3-(3-methyl-4-phenoxyphenyl)-1,3,5-triazinane-2,4,6-trione], the EC50 at TrkB was 260 nM; at TrkA, 180 nM.

In the case of `COc1cccc(-n2c(=O)[nH]c(=O)n(-c3ccc(Oc4ccccc4)c(OC)c3)c2=O)c1` [Example 52, 1-(3-methoxy-4-phenoxyphenyl)-3-(3-methoxyphenyl)-1,3,5-triazinane-2,4,6-trione], the results for the half-maximal effective concentration (EC50) on TrkB and on TrkA were 410 nM and 380 nM, respectively.

On to `COc1ccc(-n2c(=O)[nH]c(=O)n(-c3ccc(Oc4ccccc4)c(OC)c3)c2=O)cc1` [Example 53, 1-(3-methoxy-4-phenoxyphenyl)-3-(4-methoxyphenyl)-1,3,5-triazinane-2,4,6-trione], for which the values for the EC50 on TrkB and at TrkA were 780 nM and 960 nM, respectively.

`Cc1cc(-n2c(=O)[nH]c(=O)n(-c3ccccc3)c2=O)c(C)cc1Oc1ccccc1` [Example 54, 1-(2,5-dimethyl-4-phenoxyphenyl)-3-phenyl-1,3,5-triazinane-2,4,6-trione]: the 50% effective concentration (EC50) came out at 310 nM at TrkB and 440 nM on TrkA.

Take `Cc1cc(-n2c(=O)[nH]c(=O)n(C)c2=O)ccc1Oc1ccccc1` [Example 55, 1-methyl-3-(3-methyl-4-phenoxyphenyl)-1,3,5-triazinane-2,4,6-trione]: the EC50 at TrkB was 1400 nM; on TrkA, 390 nM.

With `COCCOc1cc(-n2c(=O)[nH]c(=O)n(-c3ccc(OC)cc3)c2=O)ccc1Oc1ccccc1` [Example 60, 1-[3-(2-methoxyethoxy)-4-phenoxyphenyl]-3-(4-methoxyphenyl)-1,3,5-triazinane-2,4,6-trione], the EC50 on TrkB worked out at 220 nM; on TrkA, 300 nM.

Turning to `COCCOc1cc(-n2c(=O)[nH]c(=O)n(-c3cccc(OC)c3)c2=O)ccc1Oc1ccccc1` [Example 61, 1-[3-(2-methoxyethoxy)-4-phenoxyphenyl]-3-(3-methoxyphenyl)-1,3,5-triazinane-2,4,6-trione], the EC50 at TrkB was 380 nM; on TrkA it was 420 nM.

With `Cc1ccccc1Oc1ccc(-n2c(=O)[nH]c(=O)n(-c3ccccc3)c2=O)cc1C` [Example 62, 1-[3-methyl-4-(2-methylphenoxy)phenyl]-3-phenyl-1,3,5-triazinane-2,4,6-trione], the EC50 on TrkB worked out at 3180 nM; on TrkA, 930 nM.

Regarding `Cc1cc(-n2c(=O)[nH]c(=O)n(-c3cscn3)c2=O)ccc1Oc1ccccc1` [Example 63, 1-(3-methyl-4-phenoxyphenyl)-3-(1,3-thiazol-4-yl)-1,3,5-triazinane-2,4,6-trione], the EC50 on TrkB came out at 950 nM; at TrkA, 2380 nM.

`COCCOc1cc(-n2c(=O)[nH]c(=O)n(-c3ccc(C)s3)c2=O)ccc1Oc1ccccc1` [Example 66, 1-[3-(2-methoxyethoxy)-4-phenoxyphenyl]-3-(5-methylthiophen-2-yl)-1,3,5-triazinane-2,4,6-trione]: the EC50 on TrkB and at TrkA was 370 nM throughout.

With `Cc1cc(-n2c(=O)[nH]c(=O)n(-c3ccc(Oc4ccccc4)c(C)c3)c2=O)ccc1Oc1ccccc1` [Example 67, 1,3-bis(3-methyl-4-phenoxyphenyl)-1,3,5-triazinane-2,4,6-trione], the concentration for a half-maximal effect (EC50) at TrkB came out at 26000 nM; on TrkA, 3200 nM.

As to `Cc1cc(Oc2ccccc2)ccc1-n1c(=O)[nH]c(=O)n(-c2ccccc2)c1=O` [Example 70, 1-(2-methyl-4-phenoxyphenyl)-3-phenyl-1,3,5-triazinane-2,4,6-trione], the concentration for a half-maximal effect (EC50) on TrkB worked out at 350 nM; on TrkA it was 660 nM.

The values above are taken from US12209071B2, “Triazine derivatives for treating diseases relating to neurotrophins” (AlzeCure Pharma AB, priority 2018, dated 2025).
